# Measured values from patent US20250073226A1, “USE OF OPIOID FOR TREATMENT OF AUTISM SPECTRUM DISORDERS” (priority 2021, published 2025).
# Where “and” joins values, the source holds several entries; their conditions need not be identical. Equal values may be shown once.
# Assays:
# [1] = system: model similar to this experiment; conditions: 3 hours after administration; Horm Behav. 2017 November; 96:130-136; cited from earlier work
# mice = conditions: Non-patent Document 28; cited from earlier work
# [2] = Pharmacokinetic: drug concentrations in plasma by LC-MS after subcutaneous administration; conditions: ICR mice
# [3] = morphine hydrochloride 0.03 mg/kg s.c., Average value
# [4] = morphine hydrochloride 0.03 mg/kg s.c., individual animals
# [5] = morphine hydrochloride 0.1 mg/kg s.c., Average value
# [6] = morphine hydrochloride 0.1 mg/kg s.c., individual animals
# [7] = morphine hydrochloride 3 mg/kg s.c., Average value
# [8] = morphine hydrochloride 3 mg/kg s.c., individual animals
smiles,measurement,setting,value
CC[C@H](C)[C@@H]1NC(=O)[C@H](Cc2ccc(O)cc2)NC(=O)[C@@H](N)CSSC[C@@H](C(=O)N2CCC[C@H]2C(=O)N[C@@H](CC(C)C)C(=O)NCC(N)=O)NC(=O)[C@H](CC(N)=O)NC(=O)[C@H](CCC(N)=O)NC1=O [oxytocin],"improvement effect of social impairment, persistence",[1],the drug efficacy disappears
CN1CC[C@]23c4c5ccc(O)c4O[C@H]2[C@@H](O)C=C[C@H]3[C@H]1C5 [morphine],dose at which the analgesic effect was maximum,mice,8 mg/kg
CN1CC[C@]23c4c5ccc(O)c4O[C@H]2[C@@H](O[C@@H]2O[C@H](C(=O)O)[C@@H](O)[C@H](O)[C@H]2O)C=C[C@H]3[C@H]1C5 [M6G],Plasma concentration M6G After 15 minutes,[2]; [3],13.2 ng/mL
same,Plasma concentration M6G After 60 minutes,[2]; [3],5.09 ng/mL
same,Plasma concentration M6G After 90 minutes,[2]; [3],0.488 ng/mL
same,Plasma concentration M6G After 15 minutes,[2]; [4],10.4 ng/mL and 15.7 ng/mL and 13.6 ng/mL
same,Plasma concentration M6G After 60 minutes,[2]; [4],6.28 ng/mL and 5.05 ng/mL and 3.95 ng/mL
same,Plasma concentration M6G After 90 minutes,[2]; [4],0 ng/mL and 0.806 ng/mL and 0.657 ng/mL
same,Plasma concentration M6G After 15 minutes,[2]; [5],44.6 ng/mL
same,Plasma concentration M6G After 90 minutes,[2]; [5],3.41 ng/mL
same,Plasma concentration M6G After 60 minutes,"[2]; morphine hydrochloride 0.1 mg/kg s.c., Average value (N = 3 excluded as outlier)",7.65 ng/mL
same,Plasma concentration M6G After 15 minutes,[2]; [6],47.7 ng/mL and 35.3 ng/mL and 50.7 ng/mL
same,Plasma concentration M6G After 60 minutes,[2]; [6],0 ng/mL and 15.3 ng/mL
same,Plasma concentration M6G After 90 minutes,[2]; [6],2.98 ng/mL and 4.4 ng/mL and 2.85 ng/mL
same,Plasma concentration M6G After 15 minutes,[2]; [7],1196 ng/mL
same,Plasma concentration M6G After 60 minutes,[2]; [7],646 ng/mL
same,Plasma concentration M6G After 90 minutes,[2]; [7],298 ng/mL
same,Plasma concentration M6G After 15 minutes,[2]; [8],1250 ng/mL and 1340 ng/mL and 998 ng/mL
same,Plasma concentration M6G After 60 minutes,[2]; [8],829 ng/mL and 580 ng/mL and 528 ng/mL
same,Plasma concentration M6G After 90 minutes,[2]; [8],320 ng/mL and 240 ng/mL and 335 ng/mL
